Tests used:
HCoV-229E M^pro = biological target: T1, HCoV-229E M^pro (Human coronavirus 229E, UniProt P0C6X1); test: biochemical
T1 construct: HCoV-229E M^pro (15 mg/ml; two amino acids deleted at C-terminal); made in house

TGEV M^pro = TGEV M^pro (Porcine transmissible gastroenteritis coronavirus, UniProt P0C6Y5); test: biochemical
FIPV M^pro = FIPV M^pro (Feline coronavirus, UniProt Q98VG9); test: biochemical; details: pH 7.3, read-out: kobs/[I]
MHV M^pro = MHV M^pro (Murine coronavirus, UniProt P0C6X9); test: biochemical; details: pH 7.3, read-out: kobs/[I]
MHV M^pro, sequence (P0C6X9 3334-3635): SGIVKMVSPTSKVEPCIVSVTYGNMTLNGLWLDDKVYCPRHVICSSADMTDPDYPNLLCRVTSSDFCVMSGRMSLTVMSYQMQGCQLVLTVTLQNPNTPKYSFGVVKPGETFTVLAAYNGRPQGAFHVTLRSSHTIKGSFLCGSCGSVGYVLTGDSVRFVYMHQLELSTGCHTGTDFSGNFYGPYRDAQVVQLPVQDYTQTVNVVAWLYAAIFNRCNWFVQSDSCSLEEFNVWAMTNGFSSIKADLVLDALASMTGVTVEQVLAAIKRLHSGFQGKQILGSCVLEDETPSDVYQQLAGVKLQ

IBV M^pro = IBV M^pro (Avian infectious bronchitis virus, UniProt P0C6Y3); test: biochemical
IBV M^pro, sequence (P0C6Y3 2782-3088): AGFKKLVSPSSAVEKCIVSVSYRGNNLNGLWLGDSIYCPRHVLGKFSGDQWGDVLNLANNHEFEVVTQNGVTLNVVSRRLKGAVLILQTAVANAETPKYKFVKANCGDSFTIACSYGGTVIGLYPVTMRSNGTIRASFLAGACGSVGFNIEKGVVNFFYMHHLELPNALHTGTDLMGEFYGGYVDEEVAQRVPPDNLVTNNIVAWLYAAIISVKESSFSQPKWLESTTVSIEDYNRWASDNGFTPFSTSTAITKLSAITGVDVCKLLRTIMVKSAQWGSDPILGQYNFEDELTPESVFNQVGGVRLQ

CoV M^pros = type: biochemical
SARS-CoV M^pro = SARS-CoV M^pro (Severe acute respiratory syndrome coronavirus, UniProt P0C6X7); test: biochemical
M^pro of HCoV-NL63 = M^pro of HCoV-NL63 (Human coronavirus NL63, UniProt P0C6X5); type: biochemical
M^pro of HCoV-NL63, sequence (P0C6X5 2940-3242): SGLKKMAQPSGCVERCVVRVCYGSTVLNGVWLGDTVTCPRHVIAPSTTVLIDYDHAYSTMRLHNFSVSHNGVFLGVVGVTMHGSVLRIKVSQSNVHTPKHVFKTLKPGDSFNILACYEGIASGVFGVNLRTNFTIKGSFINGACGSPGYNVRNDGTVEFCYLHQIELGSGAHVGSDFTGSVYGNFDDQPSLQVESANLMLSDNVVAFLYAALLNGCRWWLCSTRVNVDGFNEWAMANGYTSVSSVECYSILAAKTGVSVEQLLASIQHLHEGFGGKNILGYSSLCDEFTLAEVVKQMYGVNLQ

M^pro of HCoV-HKU1 = M^pro of HCoV-HKU1 (Human coronavirus HKU1, UniProt P0C6X2); type: biochemical
M^pro of HCoV-HKU1, sequence (P0C6X2 3335-3637): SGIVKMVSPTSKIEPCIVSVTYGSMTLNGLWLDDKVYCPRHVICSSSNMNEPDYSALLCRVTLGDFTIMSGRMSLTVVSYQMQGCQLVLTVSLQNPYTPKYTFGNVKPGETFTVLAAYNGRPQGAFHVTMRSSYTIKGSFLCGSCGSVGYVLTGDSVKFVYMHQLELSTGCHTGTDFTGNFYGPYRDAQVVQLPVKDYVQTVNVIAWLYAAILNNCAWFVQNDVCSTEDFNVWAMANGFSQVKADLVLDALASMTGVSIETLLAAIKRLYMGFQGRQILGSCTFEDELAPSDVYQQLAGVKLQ

HCoV-229E = test: microbe, parasite or virus in culture; type: cell-based; details: Human coronavirus 229E, MRC5, 14 h
FIPV = test: microbe, parasite or virus in culture; type: cell-based, FIPV (strain 79–1146); details: Alphacoronavirus 1, 14 h
MHV-A59 [1] = test: organism not typed; type: cell-based; details: 14 h
MHV-A59 [2] = test: MHV-A59 plaque-reduction assay in DBT cells; type: cell-based
Description: Murine DBT cells (generously provided by Dr. Lishan Su of University of North Carolina) were cultured in Dulbecco's modified Eagle's medium supplemented with 10% fetal bovine serum (FBS) and antibiotics at 37 °C in 5% CO2.
DBT cells were suspended in growth medium in triplicate wells in 6-well plates and preincubated with appropriate concentrations of the inhibitor. The next day, the medium was aspirated, and MHV-A59 was added to each well at a titer of 100 PFU/well. After incubation for 1 h, the virus inoculum was aspirated, and 2 ml of a media-agar overlay with appropriate concentrations of inhibitor was added to each well. The plates were further incubated for 24 h and stained with neutral red to visualize plaques.

DBT cells = test: Cytotoxicity assay (MTT); type: cell-based, murine; details: 500 μM, two days
Description: DBT cells were suspended in growth medium in 96-well plates. The next day, appropriate concentrations of the inhibitor were added to the medium. Two days later, the relative numbers of surviving cells were measured by MTT (Sigma, St. Louis, Missouri, United States) assay in accordance with the manufacturer's instructions.

SARS-CoV = details: cell-based assays; data to be published elsewhere
TGEV = test: Cell-based assay of TGEV replication; details: cell-based assays; data to be published elsewhere
CoVs = details: cited from earlier work
[3] = set-up: method as in PMID 14638501, PMID 11796347; details: cited from earlier work
[4] = set-up: method as in PMID 14638501, PMID 11796347; details: in animals; cited from earlier work
rhinovirus = tested on: rhinovirus; set-up: method as in PMID 14638501, PMID 11796347; details: intranasal suspension; cited from earlier work
[5] = set-up: method as in PMID 14638501, PMID 11796347; details: cited from earlier work; remark: listed apart in the source

TGEV M^pro, sequence (P0C6Y5 2879-3180): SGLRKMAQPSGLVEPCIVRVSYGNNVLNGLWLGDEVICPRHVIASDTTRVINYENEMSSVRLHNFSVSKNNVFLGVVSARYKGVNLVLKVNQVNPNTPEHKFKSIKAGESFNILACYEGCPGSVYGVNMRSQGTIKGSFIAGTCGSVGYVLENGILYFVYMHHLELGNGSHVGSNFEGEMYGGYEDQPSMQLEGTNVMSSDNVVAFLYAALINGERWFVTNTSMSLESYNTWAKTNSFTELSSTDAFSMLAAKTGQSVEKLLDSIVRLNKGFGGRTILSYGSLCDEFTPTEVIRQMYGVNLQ
T1 sequence (P0C6X1 2966-3265 limits assumed): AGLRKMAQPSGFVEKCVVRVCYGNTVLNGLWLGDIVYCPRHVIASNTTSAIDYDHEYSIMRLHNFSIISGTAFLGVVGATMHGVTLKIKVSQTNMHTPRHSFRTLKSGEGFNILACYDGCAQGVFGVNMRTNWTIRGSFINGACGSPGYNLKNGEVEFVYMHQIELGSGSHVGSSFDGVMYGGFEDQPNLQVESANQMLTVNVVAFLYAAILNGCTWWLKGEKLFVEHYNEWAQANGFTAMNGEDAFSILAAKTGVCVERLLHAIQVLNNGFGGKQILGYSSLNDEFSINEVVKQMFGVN
FIPV M^pro, sequence (Q98VG9 2904-3205): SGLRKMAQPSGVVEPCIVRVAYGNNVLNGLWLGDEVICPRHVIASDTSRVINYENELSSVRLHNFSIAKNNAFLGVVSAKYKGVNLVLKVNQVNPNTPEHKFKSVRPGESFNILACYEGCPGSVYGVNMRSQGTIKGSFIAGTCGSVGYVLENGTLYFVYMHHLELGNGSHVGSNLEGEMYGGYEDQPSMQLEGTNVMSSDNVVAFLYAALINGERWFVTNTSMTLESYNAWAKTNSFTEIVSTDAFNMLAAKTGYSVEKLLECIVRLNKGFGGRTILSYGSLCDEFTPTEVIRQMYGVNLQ

## CCOC(=O)/C=C/[C@H](C[C@@H]1CCNC1=O)NC(=O)[C@H](CC(C)C)NC(=O)[C@@H](NC(=O)[C@H](C)NC(=O)c1cc(C)on1)C(C)C [N1]
HCoV-229E M^pro
  Ki: 1110 ± 90 nM
  k3: 14.8 ± 0.7 × 10^−3s^−1
TGEV M^pro
  Ki: 3.2 ± 0.2 µM
  k3: 50 ± 3 × 10^−3s^−1
FIPV M^pro
  kinact/KI: 24000 M⁻¹ s⁻¹
MHV M^pro
  kinact/KI: 2800 M⁻¹ s⁻¹
IBV M^pro
  Ki: 3.9 ± 0.9 µM
IBV M^pro; IBV M^pro, inactivation rate constant
  k3: 14.5 ± 1.2 × 10^−3s^−1
CoV M^pros
  in vitro inactivation of all CoV M^pros tested: fast in vitro inactivation
  k3, range over CoV M^pros: 4.1–50 × 10^−3s^−1
CoV M^pros; read-out: Ki, range over CoV M^pros
  Ki: 1.11 to 10.7 µM

## Cc1cc(C(=O)N[C@@H](C)C(=O)N[C@H](C(=O)N[C@@H](CC(C)C)C(=O)N[C@H](/C=C/C(=O)OCc2ccccc2)C[C@@H]2CCNC2=O)C(C)C)no1 [N3]
HCoV-229E M^pro
  Ki: 1670 ± 180 nM
  k3: 18.0 ± 1.1 × 10^−3s^−1
TGEV M^pro; pH 7.3, read-out: kobs/[I]
  kinact/KI: 13000 M⁻¹ s⁻¹
FIPV M^pro
  kinact/KI: 47000 M⁻¹ s⁻¹
MHV M^pro
  kinact/KI: 4800 M⁻¹ s⁻¹
SARS-CoV M^pro
  Ki: 9 ± 0.8 µM
  k3: 3.1 ± 0.5 × 10^−3s^−1
IBV M^pro; pH 7.3, read-out: kobs/[I]
  kinact/KI: 7900 M⁻¹ s⁻¹
CoV M^pros
  in vitro inactivation of all CoV M^pros tested: fast in vitro inactivation
M^pro of HCoV-NL63
  inhibition on M^pro of HCoV-NL63: potent inhibition
M^pro of HCoV-HKU1
  inhibition on M^pro of HCoV-HKU1: potent inhibition
HCoV-229E
  IC50: 4 µM
FIPV
  IC50: 8.8 µM
MHV-A59 [1]
  IC50: 2700 nM
MHV-A59 [2]; 8 μM N3
  protection of DBT cells from MHV infection: sufficiently protected
MHV-A59 [2]; DBT cells, low-multiplicity (MOI = 0.01)
  EC50: 3.4 µM
DBT cells
  inhibition of cell growth: 28.3%
SARS-CoV
  inhibition of replication of SARS-CoV: strongly inhibit
TGEV
  inhibition of replication of TGEV: strongly inhibit

## CCOC(=O)/C=C/[C@H](C[C@@H]1CCNC1=O)NC(=O)[C@@H](CC(=O)[C@@H](NC(=O)c1cc(C)on1)C(C)C)Cc1ccc(F)cc1 [Ruprintrivir, ruprintrivir]
CoVs
  inhibition of CoVs: did not show inhibition
[3]
  aqueous solubility: poor
[4]
  oral bioavailability: low
rhinovirus
  effect of prophylaxis in Phase II studies: reduced the proportion of subjects with positive viral cultures and viral titers
[5]
  most common adverse effects: blood-tinged mucus and nasal passage irritation
  tolerability: well tolerated

Source: PMC1197287 (PLoS Biology, 2005)
